Experimental findings from article PMC9814657, “Generative and reinforcement learning approaches for the automated de novo design of bioactive compounds” (Communications Chemistry, 2022) are described below.

T1 sequence (P00533 25-1210): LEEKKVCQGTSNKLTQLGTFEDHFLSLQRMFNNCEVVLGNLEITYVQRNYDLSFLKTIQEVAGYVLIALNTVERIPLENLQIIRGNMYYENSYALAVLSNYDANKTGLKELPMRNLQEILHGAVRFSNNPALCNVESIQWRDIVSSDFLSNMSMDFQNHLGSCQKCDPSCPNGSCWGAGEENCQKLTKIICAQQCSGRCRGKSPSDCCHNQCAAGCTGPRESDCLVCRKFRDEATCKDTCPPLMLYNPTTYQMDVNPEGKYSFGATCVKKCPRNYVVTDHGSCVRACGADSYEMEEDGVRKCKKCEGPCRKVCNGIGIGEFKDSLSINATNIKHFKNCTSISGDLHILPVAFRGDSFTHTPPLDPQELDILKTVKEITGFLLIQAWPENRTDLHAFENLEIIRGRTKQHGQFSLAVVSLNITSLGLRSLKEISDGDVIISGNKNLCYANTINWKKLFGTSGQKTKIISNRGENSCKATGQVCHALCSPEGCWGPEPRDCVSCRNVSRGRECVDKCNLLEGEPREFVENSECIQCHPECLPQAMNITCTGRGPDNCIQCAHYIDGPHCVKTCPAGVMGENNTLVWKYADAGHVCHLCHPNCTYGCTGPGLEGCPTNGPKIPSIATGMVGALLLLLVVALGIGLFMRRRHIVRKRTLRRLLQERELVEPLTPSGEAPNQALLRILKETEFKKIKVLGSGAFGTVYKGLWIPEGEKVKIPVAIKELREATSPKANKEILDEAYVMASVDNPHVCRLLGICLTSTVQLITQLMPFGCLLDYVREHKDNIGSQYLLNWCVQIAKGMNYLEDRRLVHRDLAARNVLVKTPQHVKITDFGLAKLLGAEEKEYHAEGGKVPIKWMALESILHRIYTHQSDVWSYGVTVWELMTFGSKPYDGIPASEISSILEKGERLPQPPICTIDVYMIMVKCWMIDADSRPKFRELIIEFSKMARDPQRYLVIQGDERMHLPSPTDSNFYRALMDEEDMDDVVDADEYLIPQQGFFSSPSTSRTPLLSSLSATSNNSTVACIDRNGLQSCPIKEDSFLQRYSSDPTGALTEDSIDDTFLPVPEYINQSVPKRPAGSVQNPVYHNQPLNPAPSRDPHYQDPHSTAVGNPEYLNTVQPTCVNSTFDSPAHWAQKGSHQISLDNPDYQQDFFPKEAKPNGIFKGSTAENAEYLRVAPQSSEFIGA

One test concerns the target T1, epidermal growth factor receptor (EGFR) (Homo sapiens, UniProt P00533). In words: […] radiometric HotSpot kinase assay, 10-dose IC50, […] ATP (Reaction Biology). In kind it is biochemical.
Details: not given
`Fc1ccc(Nc2ncnc3ccc(Br)cc23)cc1` [compound 1, Z1192045732]: the pIC50 was determined as 7.5 pIC50.
On the same count and under the same terms, with `Nc1c(Cl)cc(Nc2ncnc3ccc(F)cc23)cc1Cl` [compound 2, Z1576525970] the figure was 7.4 pIC50.
As to `Nc1c(Cl)cc(Nc2ncnc3c(F)cccc23)cc1Cl` [compound 4, Z1823625743], the IC50 stood at 1400 nM.

Another test deals with T1, epidermal growth factor receptor (EGFR). Put plainly: biochemical. Also noted: 33P radiometric HotSpot filter-binding EGFR kinase assay, 10 uM ATP, Reaction Biology. Particulars: 10 uM ATP. The procedure:
(§1) Compounds that emerged as computational hits were purchased from Enamine (https://www.enaminestore.com/) and resuspended in 100% DMSO at 10 mM concentration. In vitro experiments were performed at Reaction Biology (https://www.reactionbiology.com/) using a radioactive assay based on the transfer of ^33P-labeled phosphate from ATP to the kinase substrate. The HotSpot^SM assay utilizes a miniaturized filter binding, where reaction mixtures are spotted onto filter papers. Then reaction mixture binds the radioisotope-labeled catalytic product. Unreacted phosphate is removed via washing of the filter papers. All reactions were carried out at 10 μM ATP concentrations. Seventeen computational hit molecules were matched with Enamine REAL. All of the predicted active compounds were derivatives of 4-anilinoquinazoline, a chemotype that was well represented in Enamine REAL (Table S1). The predicted active compounds contained a few small substituents on the quinazoline ring (positions 5–8: F, Cl, Br, OCH3) but a wide range of substituents on the 4-anilino group. […] The twenty three 4-anilinoquinazoline analogs were dissolved in DMSO and sent to Reaction Biology (https://www.reactionbiology.com/) for EGFR enzymatic assay screening. Two compounds in the predicted active series were insoluble in DMSO; therefore, biological tests were not performed. The 4-anilinoquinazoline analogs were initially tested in single-dose duplicate mode at a concentration of 1 μM and percent inhibition relative to DMSO control was determined (Table S1).
In the case of `Fc1ccc(Nc2ncnc3ccc(Br)cc23)cc1` [ZINC000000099087], the inhibition at 1 µM was 96%.
Same read-out and setting: then `Fc1ccc2ncnc(Nc3ccc(N4CCCC4)cc3)c2c1` [ZINC000041479925], with 8%.
Still for that read-out and setting: then `CN(C)C1CCN(c2ccc(Nc3ncnc4ccc(F)cc34)cc2)CC1` [ZINC000089266948], with 14%; and `Fc1ccc(Nc2ncnc3ccc(F)cc23)cc1` [ZINC000092611293], with 12%.
As for `OC1CCN(c2ccc(Nc3ncnc4ccc(Br)cc34)cc2)CC1` [ZINC000112964683], the inhibition at 1 µM came to 10%.
On the same count and under the same terms, with `CNC(=O)CCOc1ccc(Nc2ncnc3cc(Cl)ccc23)cc1` [ZINC000301175853] the figure was 12%; with `Nc1c(Cl)cc(Nc2ncnc3ccc(F)cc23)cc1Cl` [ZINC000301931984], 89%.
Still for that read-out and setting: with `CN(C)CCc1ccc(Nc2ncnc3ccc(F)cc23)cc1` [ZINC000301950472] the figure was 10%.
Still for that read-out and setting: then `CN(C)C1CCN(c2ccc(Nc3ncnc4ccc(Br)cc34)cc2)CC1` [ZINC000301979927], with 8%.
Take `COCCOc1ccc(Nc2ncnc3cc(F)c(OC)cc23)cc1F` [ZINC000302555896]: testing at 1 µM gave an inhibition of 12%.
On the same count and under the same terms, with `Nc1c(Cl)cc(Nc2ncnc3c(F)cccc23)cc1Cl` [ZINC000302791534] the figure was 47%; with `CN(C)C1CCN(c2ccc(Nc3ncnc4c(F)cccc34)cc2)CC1` [ZINC000302845052], 12%.
Same read-out and setting: with `COCCOc1ccc(Nc2ncnc3c(F)cccc23)cc1Cl` [ZINC000302873009] the figure was 16%; with `OC1CCCCC1Oc1ccc(Nc2ncnc3ccc(F)cc23)cc1` (centres unmarked) [ZINC000440544230], 4%; with `Cc1ccc(Nc2ncnc3cccc(F)c23)cc1F` [ZINC000480349471], 83%.
Still for that read-out and setting: then `COCCOc1ccc(Nc2ncnc3cccc(F)c23)cc1F` [ZINC000480418233], with 8%; and `OCCCOc1ccc(Nc2ncnc3cc(Cl)ccc23)cc1` [ZINC000572311742], with 0%; and `CN(C)CCc1ccc(Nc2ncnc3ccc(Cl)cc23)cc1` [ZINC000594704454], with 8%.
Regarding `CN(C)CC1CCN(c2ccc(Nc3ncnc4ccc(Br)cc34)cc2)CC1` [ZINC000737413605], testing at 1 µM gave an inhibition of 14%.

The next test has the same target. Put plainly: biochemical. Further details: 33P radiometric HotSpot filter-binding EGFR kinase assay, 10 uM ATP, Reaction Biology. The settings on record: 10 uM ATP; read-out: EGFR pIC50 (converted). Here is the method:
as §1, with “REAL.” for “REAL. All of the predicted active compounds were derivatives of 4-anilinoquinazoline, a chemotype that was well represented in Enamine REAL (Table S1). The predicted active compounds contained a few small substituents on the quinazoline ring (positions 5–8: F, Cl, Br, OCH3) but a wide range of substituents on the 4-anilino group.”, “Two compounds in the predicted active series were insoluble in DMSO; therefore, biological tests were not performed.” left out
Regarding `Fc1ccc(Nc2ncnc3ccc(Br)cc23)cc1` [ZINC000000099087], the IC50 was 31.6 nM.
On the same count and under the same terms, then `Nc1c(Cl)cc(Nc2ncnc3ccc(F)cc23)cc1Cl` [ZINC000301931984], with 39.8 nM; and `Nc1c(Cl)cc(Nc2ncnc3c(F)cccc23)cc1Cl` [ZINC000302791534], with 1260 nM.
On the same count and under the same terms, with `Cc1ccc(Nc2ncnc3cccc(F)c23)cc1F` [ZINC000480349471] the figure was 200 nM.

By inhibition is commonly meant the relative decrease from the control value, in per cent.
